What was measured:
[1] = Stability in human plasma; format: in vitro ADME; conditions: 1 μM, 37 °C
Experimental: For stability testing in plasma, the reaction was started with the addition of Compound-3 (1 µM). At specified time points, aliquots of 25 µL of the reaction mixtures were transferred into 100 μL ice-cold acetonitrile containing the internal standard. The samples were then centrifuged, and aliquots of 10 µL of the supernatants were transferred onto LC-MS/MS for the analysis of Compound-3 levels.

[2] = target: T1, CYP4F2 (Homo sapiens, UniProt P78329); assay: CYP4F2-mediated drug interaction (inhibition of CYP4F2); format: in vitro ADME; conditions: substrate pafuramidine 1.5 μM, CYP4F2 10 nM, 5 min, DB775 formation; read-out: IC50, inhibition of CYP4F2 mediated metabolism of pafuramidine
T1 construct: purchased Corning Gentest
T1 sequence (P78329 5-520): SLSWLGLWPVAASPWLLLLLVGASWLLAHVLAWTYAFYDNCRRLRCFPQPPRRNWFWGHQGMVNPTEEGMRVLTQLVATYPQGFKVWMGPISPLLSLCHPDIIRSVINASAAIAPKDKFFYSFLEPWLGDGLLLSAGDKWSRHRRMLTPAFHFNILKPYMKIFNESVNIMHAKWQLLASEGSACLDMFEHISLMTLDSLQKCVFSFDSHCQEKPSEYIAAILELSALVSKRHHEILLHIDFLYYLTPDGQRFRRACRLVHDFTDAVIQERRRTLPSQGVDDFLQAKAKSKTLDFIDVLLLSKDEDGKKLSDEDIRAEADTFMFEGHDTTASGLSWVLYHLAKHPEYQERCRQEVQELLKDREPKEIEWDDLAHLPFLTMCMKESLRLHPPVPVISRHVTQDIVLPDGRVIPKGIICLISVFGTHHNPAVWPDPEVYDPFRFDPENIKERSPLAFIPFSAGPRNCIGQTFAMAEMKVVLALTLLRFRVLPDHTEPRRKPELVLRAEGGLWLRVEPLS
Experimental: CYP4F2-mediated drug interactions were examined in two separate setting: pafuramidine as the substrate and Compound-3 as the inhibitor; and Compound-3 as the substrate and pafuramidine as the inhibitor. The reaction system contained 10 nM CYP4F2, 100 mM phosphate buffer (pH 7.4), 1 mM NADPH, and substrate (pafuramidine 1.5 μM or Compound-3 1 μM). Inhibitor (Compound-3 or pafuramidine) concentrations ranged from 0 to 10,000 nM. The incubation time was 5 min for pafuramidine and 10 min for Compound-3. Incubation temperature was 37 °C. LC-MS/MS analysis was performed as described above for the levels of DB775 or M4 (carboxylic acid metabolite of Compound-3).

[3] = Metabolite identification by UPLC/Triple TOF MS in human liver microsomes; format: in vitro ADME; parameters: key: √: metabolites were detected by high-resolution mass spectrometry; conditions: Compound-3 10 μM, 1 mg/mL microsomes, NADPH, 60 min, HRMS
Experimental: (§1) For metabolite identification, a higher concentration of Compound-3 (10 μM) was incubated with liver microsomes (1 mg/mL) in the presence of NADPH (1 mM) and primary human hepatocytes at a density of 1 × 10^6 cell/mL. Samples were collected at 0 min and 60 min with the addition of ice-cold acetonitrile. After vortexing and centrifugation, the supernatant was transferred into a new tube and evaporated to dryness. The samples were then reconstituted in 100 μL of water and methanol (v/v, 9:1). An aliquot of 10 μL of reconstituted solution was injected into UPLC/Triple TOF 5600^+ MS for metabolite identification.
(§2) Identification of Compound-3 metabolites was carried out using Acquity UPLC/Triple TOF 5600^+ system. Chromatographic separation for Compound-3 and its metabolites were achieved by an Acquity UPLC HSS T3 column (100 × 2.1 mm i.d., […]; Waters Corp.) maintained at 40 °C. The mobile phase was a mixture of 0.02% formic acid in 5 mM ammonium acetate (A) and methanol (B). The gradient elution was started from 2% B and maintained for 4 min, then increased linearly to 75% B over the next 4 min and maintained for 8 min. […] The flow rate was 0.4 mL/min and the eluent was monitored by UV detection at 280 nm.
(§3) For mass detection, a Triple TOF 5600^+ mass spectrometer (AB Sciex, Framingham, MA, USA) was operated in positive ion electrospray (ES-positive) mode with the source temperature at 500 °C and scan range from m/z 100 to 1000 Da. Other parameters were set as follows: ion spray voltage, 5500 V; decluttering potential, 80 V; curtain gas, 40 psi; ion source gas 1, 55 psi; and ion source gas 2, 50 psi. Collision energies of 25 and 65 eV were used for TOF MS and product ion scans, respectively, and a collision energy spread of 20 was used in the MS/MS analysis. Information-dependent acquisition (IDA), together with real-time multiple mass defect filter, was used to trigger acquisition of MS/MS spectra.

[4] = system: CYP1A2, CYP2B6, CYP2C8, CYP2C9, CYP2C19, CYP2D6, CYP4A11 and CYP4F3; assay: Reaction phenotyping with the rest of the recombinant CYP isozymes; format: in vitro ADME, human; conditions: 50 nM, 1 μM, NADPH
Experimental: Compound-3 was incubated separately with human cDNA-expressed cytochrome P450s (CYP1A2, CYP2B6, CYP2C8, CYP2C9, CYP2C19, CYP2D6, CYP3A4, CYP4A11, CYP4F2 and CYP4F3). The incubation mixtures contained individual CYP isoenzymes (50 nM), potassium phosphate buffer (100 mM, pH 7.4), NADPH (1 mM), and Compound-3 (1 µM). The final volume of the incubation mixture was 50 µL. Before the start of the incubation, reaction mixtures were warmed up at 37 °C for 10 min. The reaction was initiated with the addition of NADPH and the incubations were performed at 37 °C in a water bath. After 60 min of incubation, the reactions were terminated with an equal volume of ice-cold acetonitrile containing the internal standard. Control samples without NADPH but substrates were included. The samples were then centrifuged and aliquots of 10 μL of the supernatants were transferred onto LC-MS/MS for the analysis of Compound-3 and M4 (carboxylic acid) levels.

[5] = Metabolic stability in rat liver microsomes; format: in vitro ADME; conditions: rat liver microsomes 0.2 mg/mL, with NADPH, 1 μM, 37 °C
Experimental: Stability of Compound-3 was first investigated in microsomal systems from human and rat. The microsomal protein and Compound-3 concentrations were optimized to 0.2 mg/mL and 1 µM, respectively. Before the start of the incubation, reaction mixtures containing phosphate buffer (100 mM, pH 7.4), microsomes and Compound-3 in a total volume of 50 µL were warmed up at 37 °C for 10 min. The reaction was started with the addition of NADPH at a final concentration of 1 mM. Incubations were terminated at a specified time with the addition of 100 µL ice-cold acetonitrile containing the internal standard. The samples were then centrifuged, and aliquots of 10 µL of the supernatants were transferred into liquid chromatography-tandem mass spectrometry (LC-MS/MS) for the analysis of Compound-3 levels.

[6] = Metabolite identification by UPLC/Triple TOF MS in human intestinal microsomes; format: in vitro ADME; parameters: key: √: metabolites were detected by high-resolution mass spectrometry; conditions: Compound-3 10 μM, NADPH, 60 min, HRMS
Experimental: as §1, §2, §3

In the case of CCCCCCCCCCCCCCCCCCOCCOP(=O)(O)OCC1OC(n2ccc(N)nc2=O)C(F)(F)C1O (stereo not drawn) [Compound-3], the disappearance in plasma [1] is reported as “did not display noticeable disappearance”, the IC50 [2] is reported as 100 nM and the “detected in matrix HLM” value [3] is reported as “√”. The “metabolism of Compound-3 by CYP isozyme” value [4] was “did not participate”, the “disappearance in 60 min” value [5] was ~ 10% and the “detected in matrix HIM” value [6] was “√”.

— article PMC6100113, “Involvement of CYP4F2 in the Metabolism of a Novel Monophosphate Ester Prodrug of Gemcitabine and Its Interaction Potential In Vitro” (Molecules : A Journal of Synthetic Chemistry and Natural …, 2018)
